Results on 32 compounds are retold here after US10457687B2, “Aminoacid derivatives, a process for their preparation and pharmaceutical compositions containing them” (LES LABORATOIRES SERVIER, priority 2015, dated 2019).

SMILES strings stand for the structures.

The target of the first assay is Mcl-1 protein (Homo sapiens, UniProt Q07820). Briefly: Inhibition of Mcl-1 by the fluorescence polarisation technique (Method 1 or Method 2). The note with it: fluorescence polarisation, Fluorescein labelled ligand; Method 1 (not underlined) or Method 2 (underlined); read-out: IC50 (μM) Mcl-1 FP. Type of assay: binding. Put shortly: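 Fluorescence polarisation competition of 11-point compound dilutions (5% DMSO final) against fluorescein-labelled ligand for Mcl-1. Method 1: 1 nM ligand, 5 nM protein in 10 mM HEPES, 150 mM NaCl, 0.05% Tween 20, pH 7.4; Method 2: 10 nM ligand, 10 nM protein in 20 mM Na2HPO4, 1 mM EDTA, 50 mM NaCl, pH 7.4.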
Chain of Mcl-1 protein (Q07820 whole entry): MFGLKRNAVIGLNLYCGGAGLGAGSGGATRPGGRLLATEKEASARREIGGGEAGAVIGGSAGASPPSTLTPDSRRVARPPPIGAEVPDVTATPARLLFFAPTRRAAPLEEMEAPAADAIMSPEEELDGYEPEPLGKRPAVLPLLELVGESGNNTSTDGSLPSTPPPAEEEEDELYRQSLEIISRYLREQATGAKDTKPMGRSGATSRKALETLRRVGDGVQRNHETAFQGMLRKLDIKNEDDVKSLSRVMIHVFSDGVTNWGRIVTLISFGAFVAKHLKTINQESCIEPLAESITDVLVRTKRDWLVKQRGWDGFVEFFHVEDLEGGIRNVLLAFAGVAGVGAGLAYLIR
A word on the IC50: it is the concentration needed to halve the response being measured. For the compound `CCc1sc2ncnc(NC(Cc3ccccc3)C(=O)O)c2c1-c1cccc2ccccc12` [Example 100, N-[6-ethyl-(5Ra)-5-(naphthalen-1-yl)thieno[2,3-d]pyrimidin-4-yl]-D-phenylalanine], the concentration for half-maximal inhibition (IC50) amounted to 4.75 µM. Still for that read-out and setting: then `CCc1sc2ncnc(NC(Cc3ccccc3)C(=O)O)c2c1-c1cccc2c1c(Cl)cn2CCN1CCCC1` [Example 233, N-((5Sa)-5-{3-chloro-1-[2-(pyrrolidin-1-yl)ethyl]-1H-indol-4-yl}-6-ethyl-thieno[2,3-d]pyrimidin-4-yl)-D-phenylalanine], with 3.41 µM; and `CCc1sc2ncnc(NC(Cc3ccccc3[N+](=O)[O-])C(=O)O)c2c1-c1cccc(Cl)c1C` [Example 136, N-[(5Sa)-5-(3-chloro-2-methylphenyl)-6-ethylthieno[2,3-d]pyrimidin-4-yl]-2-nitro-D-phenylalanine], with 0.146 µM. On the same count and under the same terms, the value for `CCc1sc2ncnc(N[C@H](CC3CCCCC3)C(=O)O)c2c1-c1cccc2[nH]ccc12` (single isomer, unassigned) [Example 243, 3-cyclohexyl-N-[6-ethyl-5-(1H-indol-4-yl)thieno[2,3-d]pyrimidin-4-yl]-D-alanine] was 0.073 µM; that for `CCc1sc2ncnc(NC(Cc3cccc(F)c3)C(=O)O)c2c1-c1cccc2ccccc12` [Example 178, N-[6-ethyl-(5Ra)-5-(naphthalen-1-yl)thieno[2,3-d]pyrimidin-4-yl]-3-fluoro-D-phenylalanine] was 3.23 µM; that for `CCc1sc2ncnc(NC(Cc3ccccc3)C(=O)O)c2c1-c1cccc2c1c(Cl)cn2CCN1CCN(C)CC1` [Example 239, N-((5Ra)-5-{3-chloro-1-[2-(4-methylpiperazin-1-yl)ethyl]-1H-indol-4-yl}-6-ethyl-thieno[2,3-d]pyrimidin-4-yl)-D-phenylalanine] was 20.3 µM. Turning to `CCc1sc2ncnc(NC(Cc3c[nH]c4ccccc34)C(=O)O)c2c1-c1cccc2ccccc12` [Example 185, N-[6-ethyl-(5Sa)-5-(naphthalen-1-yl)thieno[2,3-d]pyrimidin-4-yl]-D-tryptophan], the IC50 worked out at 2.53 µM. As for `CCc1sc2ncnc(NC(CCc3ccccc3)C(=O)O)c2c1-c1cccc2ccccc12` [Example 171, (2R)-2-{[6-ethyl-(5Ra)-5-(naphthalen-1-yl)thieno[2,3-d]pyrimidin-4-yl]amino}-4-phenylbutanoic acid], the IC50 was 2.77 µM. On the same count and under the same terms, the value for `CCc1sc2ncnc(NC(Cc3ccc(F)cc3)C(=O)O)c2c1-c1cccc2ccccc12` [Example 177, N-[6-ethyl-(5Sa)-5-(naphthalen-1-yl)thieno[2,3-d]pyrimidin-4-yl]-4-fluoro-D-phenylalanine] was 0.957 µM.

Turning to `CCc1sc2ncnc(NC(Cc3ccccc3Br)C(=O)O)c2c1-c1cccc(Cl)c1C` [Example 140, 2-bromo-N-[(5Sa)-5-(3-chloro-2-methylphenyl)-6-ethylthieno[2,3-d]pyrimidin-4-yl]-D-phenylalanine], the IC50 was found to be 0.208 µM. Take `O=C(O)C(Cc1ccccn1)Nc1ncnc2sc(C(F)F)c(-c3cccc4ccccc34)c12` [Example 250, N-[6-(difluoromethyl)-(5Sa)-5-(naphthalen-1-yl)thieno[2,3-d]pyrimidin-4-yl]-3-pyridin-2-yl-D-alanine]: the IC50 turned out to be 0.617 µM. On the same count and under the same terms, then `CCc1sc2ncnc(N[C@H](Cc3ccccc3OC)C(=O)O)c2c1-c1cccc2ccccc12` [Example 182, N-[6-ethyl-5-(naphthalen-1-yl)thieno[2,3-d]pyrimidin-4-yl]-2-methoxy-D-phenylalanine], with 0.407 µM; and `CCc1sc2ncnc(NC(Cc3ccc(O)cc3)C(=O)O)c2c1-c1cccc2ccccc12` [Example 172, N-[6-ethyl-(5Ra)-5-(naphthalen-1-yl)thieno[2,3-d]pyrimidin-4-yl]-D-tyrosine], with 28.8 µM; and `CCc1sc2ncnc(N[C@H](Cc3cccnc3)C(=O)O)c2c1-c1cccc2ccccc12` [Example 192, N-[6-ethyl-5-(naphthalen-1-yl)thieno[2,3-d]pyrimidin-4-yl]-3-pyridin-3-yl-D-alanine], with 2.08 µM. Still for that read-out and setting: then `CCc1sc2ncnc(N[C@H](Cc3cn(Cc4ccccc4)cn3)C(=O)O)c2c1-c1cccc2ccccc12` [Example 195, 1-benzyl-N-[6-ethyl-5-(naphthalen-1-yl)thieno[2,3-d]pyrimidin-4-yl]-D-histidine], with 14.2 µM; and `CCc1sc2ncnc(N[C@H](Cc3ccccc3)C(=O)O)c2c1-c1cccc2cc[nH]c12` (single isomer, unassigned) [Example 71, N-[6-ethyl-5-(1H-indol-7-yl)thieno[2,3-d]pyrimidin-4-yl]-D-phenylalanine], with 39 µM. On the same count and under the same terms, the value for `CCc1sc2ncnc(NC(Cc3ccccc3)C(=O)O)c2c1-c1cccc2c1c(Cl)cn2CCCN1CCN(C)CC1` [Example 241, N-((5Ra)-5-{3-chloro-1-[3-(4-methylpiperazin-1-yl)propyl]-1H-indol-4-yl}-6-ethyl-thieno[2,3-d]pyrimidin-4-yl)-D-phenylalanine] was 14.3 µM; that for `COc1ccccc1CC(Nc1ncnc2sc(C(C)C)c(-c3cccc(Cl)c3C)c12)C(=O)O` [Example 223, N-[(5Sa)-5-(3-chloro-2-methylphenyl)-6-(propan-2-yl)thieno[2,3-d]pyrimidin-4-yl]-2-methoxy-D-phenylalanine] was 0.086 µM; that for `CCc1sc2ncnc(N[C@H](Cc3cccc4ccccc34)C(=O)O)c2c1-c1cccc2ccccc12` (single isomer, unassigned) [Example 186, N-[6-ethyl-5-(naphthalen-1-yl)thieno[2,3-d]pyrimidin-4-yl]-3-naphthalen-1-yl-D-alanine] was 7.88 µM. For the compound `CCc1sc2ncnc(N[C@H](Cc3ccccn3)C(=O)O)c2c1-c1cccc2ccccc12` [Example 191, N-[6-ethyl-5-(naphthalen-1-yl)thieno[2,3-d]pyrimidin-4-yl]-3-pyridin-2-yl-D-alanine], the IC50 was found to be 0.171 µM. Still for that read-out and setting: then `CCc1sc2ncnc(NC(Cc3ccccc3OCCCN(C)C)C(=O)O)c2c1-c1cccc(Cl)c1C` [Example 158, N-[(5Sa)-5-(3-chloro-2-methylphenyl)-6-ethylthieno[2,3-d]pyrimidin-4-yl]-2-[3-(dimethylamino)propoxy]-D-phenylalanine], with 0.104 µM.

Consider `CCc1sc2ncnc(N[C@H](Cc3ccccc3)C(=O)O)c2c1-c1cccc(O)c1C` [Example 67, N-[6-ethyl-5-(3-hydroxy-2-methylphenyl)thieno[2,3-d]pyrimidin-4-yl]-D-phenylalanine], for which the IC50 was 2.08 µM.

As for `CCc1sc2ncnc(NC(Cc3ccccc3O)C(=O)O)c2c1-c1cccc2ccccc12` [Example 175, N-[6-ethyl-(5Ra)-5-(naphthalen-1-yl)thieno[2,3-d]pyrimidin-4-yl]-2-hydroxy-D-phenylalanine], the IC50 amounted to 3.86 µM. On the same count and under the same terms, the value for `CCc1sc2ncnc(NC(Cc3ccccn3)C(=O)O)c2c1-c1cccc(Cl)c1C` [Example 152, N-[(5Sa)-5-(3-chloro-2-methylphenyl)-6-ethylthieno[2,3-d]pyrimidin-4-yl]-3-pyridin-2-yl-D-alanine] was 0.047 µM; that for `CCc1sc2ncnc(N[C@H](Cc3cn(C)cn3)C(=O)O)c2c1-c1cccc2ccccc12` [Example 194, N-[6-ethyl-5-(naphthalen-1-yl)thieno[2,3-d]pyrimidin-4-yl]-1-methyl-D-histidine] was 1.75 µM. Regarding `C/C=C\c1sc2ncnc(N[C@H](Cc3ccccc3)C(=O)O)c2c1-c1cccc2ccccc12` [Example 104, N-[(5Sa)-5-(naphthalen-1-yl)-6-((1Z)-prop-1-en-1-yl)thieno[2,3-d]pyrimidin-4-yl]-D-phenylalanine], the IC50 stood at 0.046 µM. Still for that read-out and setting: then `CCc1sc2ncnc(NC(Cc3ccccc3)C(=O)O)c2c1-c1ccc(OCCN(C)C)c(Cl)c1C` [Example 59, N-((5Sa)-5-{3-chloro-4-[2-(dimethylamino)ethoxy]-2-methylphenyl}-6-ethylthieno[2,3-d]pyrimidin-4-yl)-L-phenylalanine], with 0.127 µM; and `CCc1sc2ncnc(NC(Cc3ccccc3)C(=O)O)c2c1-c1cncc2ccccc12` [Example 82, N-[6-ethyl-(5Ra)-5-(isoquinolin-4-yl)thieno[2,3-d]pyrimidin-4-yl]-D-phenylalanine], with 1.11 µM.

The same assay, now with this note: partial inhibitors; @ 10 μM test compound.
`Cc1c(Cl)cccc1-c1c(C(C)C)sc2ncnc(N[C@H](Cc3ccccc3)C(=O)O)c12` [Example 220, N-[(5Ra)-5-(3-chloro-2-methylphenyl)-6-(propan-2-yl)thieno[2,3-d]pyrimidin-4-yl]-D-phenylalanine]: the “percentage fluorescence polarisation inhibition, Mcl-1 FP” value is listed as 31.7% @ 10 μM.

The same assay, now with this note: partial inhibitors; @ 50 μM test compound.
On to `CCc1sc2ncnc(NC(Cc3ccccc3OCCC3CCCC3)C(=O)O)c2c1-c1cccc(Cl)c1C` [Example 143, N-[(5Ra)-5-(3-chloro-2-methylphenyl)-6-ethylthieno[2,3-d]pyrimidin-4-yl]-2-(2-cyclopentylethoxy)-D-phenylalanine], for which the “percentage fluorescence polarisation inhibition, Mcl-1 FP” value was 68.85% @ 50 μM.

The assay is the same for the next values; noted with them: partial inhibitors; @ 100 μM test compound; 100 µM.
With `CC(O)c1sc2ncnc(N[C@H](Cc3ccccc3)C(=O)O)c2c1-c1cccc2ccccc12` (single isomer, unassigned) [Example 204, N-[6-(1-hydroxyethyl)-5-(naphthalen-1-yl)thieno[2,3-d]pyrimidin-4-yl]-D-phenylalanine], the “percentage fluorescence polarisation inhibition, Mcl-1 FP” value was determined as 44.8% @ 100 μM.

The same assay, now with this note: partial inhibitors; @ 200 μM test compound.
For the compound `CCc1sc2ncnc(N[C@H](Cc3ccccc3)C(=O)O)c2c1-c1cccc2cnn(C)c12` [Example 89, N-[6-ethyl-(5Ra)-5-(1-methyl-1H-indazol-7-yl)thieno[2,3-d]pyrimidin-4-yl]-D-phenylalanine], the “percentage fluorescence polarisation inhibition, Mcl-1 FP” value worked out at 72.13% @ 200 μM.
